Assay results published in publication PMC5760527, “Connexin 43 Hemichannel as a Novel Mediator of Sterile and Infectious Inflammatory Diseases” (Scientific Reports, 2018).

Key:
[1] = system: HMGB1 release, RAW 264.7 cells; assay: HMGB1 release, Western blotting; assay type: cell-based, murine; details: LPS 0.5 µg/ml, 16 h, P < 0.05 versus +LPS
Cx43 EL1 peptide = target: T1, Cx43 EL1 peptide (Homo sapiens, UniProt P17302); assay: Surface Plasmon Resonance, Cx43 EL1 peptide; assay type: binding; details: synthetic full-length EL1 peptide, data not shown
T1 construct: synthetic full-length Cx43 EL1 or EL2 peptide as judged by the Surface Plasmon Resonance Analysis
T1 sequence (P17302 45-76 limits assumed): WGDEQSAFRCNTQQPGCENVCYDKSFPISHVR

[2] = system: LPS-induced trypan blue uptake, RAW 264.7 cells; assay: Trypan blue uptake assay; assay type: cell-based, murine; details: P5 10 µg/ml, LPS 1.0 µg/ml, 16 h, 0.08% trypan blue, P < 0.05 versus +LPS
Method: Specifically, murine macrophage-like RAW 264.7 cells were stimulated with LPS (1.0 µg/ml) in the absence or presence of P5 peptide (10 µg/ml) for 16 h, and the culture medium was then replaced with 1 × PBS containing 0.08% trypan blue (Cat. # 15250-061, Invitrogen). Phase contrast images of multiple fields were randomly captured, and the percentage of trypan blue-stained cells was calculated.

[3] = system: LPS-induced Cx43 upregulation, macrophages; assay: LPS-induced Cx43 upregulation in presence of P5; assay type: cell-based; details: macrophage cultures; data not shown
Method: (§1) The cellular levels of Cx43 and phosphor-PKR were determined by Western blotting analysis using an affinity-purified rabbit anti-Cx43 or anti-phospho-PKR (Thr^451) IgGs as previously described[9],[25],[53]. The levels of HMGB1 in the culture medium were determined by Western blotting analysis as described previously. The level of β-actin was used as a reference of total cellular proteins. Briefly, an equal volume of culture medium (conditioned by identical macrophage cell numbers) was harvested, and protein content was concentrated by ultrafiltration (with a molecular weight cutoff of 10.0 kDa), and then normalized to the same volume with a sample buffer. Proteins in equal sample volume were resolved on sodium dodecyl sulfate (SDS)-polyacrylamide gels, and transferred to polyvinylidene difluoride (PVDF) membranes. After blocking with 5% nonfat milk, the membrane was incubated with respective antibodies (anti-Cx43, 1:1000; anti-phospho-PKR, 1:1000; anti-HMGB1, 1:1,000; anti-β-actin. 1:5,000) overnight. Subsequently, the membrane was incubated with the appropriate secondary antibody, and the immunoreactive bands were visualized by chemiluminescence techniques.

[4] = system: Cx43 protein expression, NIH 3T3 fibroblasts; assay: Cx43 protein expression, Western blotting, NIH 3T3 cells; assay type: cell-based; details: prolonged incubation, data not shown
Method: as §1

[5] = system: LPS-induced production of nitric oxide; assay: Nitric oxide production; assay type: cell-based; details: data not shown
[6] = system: TUNEL-positive cells, lungs of septic mice (CLP); assay: TUNEL staining of septic lungs; assay type: in vivo, Balb/c mice; details: lungs at 24 h post CLP, at protective doses; 5–8 fields; P < 0.05 versus CLP
Excerpt: (§2) This study was approved and performed in accordance with the guidelines of the Institutional Animal Care and Use Committee of the Feinstein Institute for Medical Research, Manhasset, New York, USA (Animal Protocol #2008-033, Approval date: September 10, 2014). To evaluate the effect of various Cx43 mimetic peptides on sepsis lethality, a clinically relevant animal model of sepsis induced by cecal ligation and puncture (CLP) was employed. Briefly, the cecum of Balb/c mice was ligated at about 5 mm from the cecal tip, and then punctured once with a 22-gauge needle. GAP26, TAT-GAP19 or P5 peptides were administered intraperitoneally into mice at indicated doses and time points, and animal survival rates were monitored for up to 2 wks. The Kaplan-Meier method was used to compare the differences in mortality rates between groups.
Upper and lower lobe lung tissues were collected at 24 h post CLP, fixed in 4% paraformaldehyde, embedded in paraffin, and cut into 5 µm thick sections. […] Five to eight fields of view were randomly selected for each tissue section, and the number of TUNEL-positive green cells was expressed as an average of percentage of total DAPI-positive blue cells.

[7] = system: hepatic I/R injury, C57BL/6 mice; assay: Hepatic ischemia/reperfusion injury; assay type: in vivo, Male C57BL/6 mice; details: P5 10.0 mg/kg i.v. at onset of reperfusion; 60 min ischemia; 24 h after onset of ischemia; P < 0.05 versus saline (I/R)
Method: Male C57BL/6 mice (20–25 g) were subjected to hepatic ischemia/reperfusion by temporally clamping the hepatic artery and portal vein for 60 min, which typically produced ischemia in 70% of the liver. At the beginning of the reperfusion, 0.2 ml saline, P5 (10.0 mg/kg BW) was injected via the internal jugular vein. At 24 h after the onset of ischemia, animals were euthanized to harvest blood to measure serum levels of hepatic injury markers such as alanine aminotransferase (ALT) and aspartate aminotransferase (AST) using commercial kits.

[8] = system: LPS-induced ATP release, RAW 264.7 cells; assay: ATP release assay; assay type: cell-based, murine; details: P5 20 µM; LPS 1 µg/ml; RAW 264.7, serum-free DMEM; luciferin:luciferase; P < 0.05 versus +LPS
Method: In addition to the LY dye uptake, we also employed the ATP release assay to measure the Cx43 hemichannel activities. The current gold standard for ATP quantification relied on luciferin:luciferase chemistry where the enzyme luciferase catalyzed the oxidation of ATP and luciferin ultimately resulting in the generation of a photon which could be quantified by luminometry using a luminometer plate reader (Synergy H1 Hybrid, Biotek, Winooski, U.S.A.) and the amount of ATP was calculated from standard curve. Briefly, RAW 264.7 cells were cultured in serum-free DMEM medium, and stimulated with LPS (1 µg/ml) in the absence or presence of Cx43 mimetic peptide (P5, 20 µM). The cell-conditioned culture medium was collected and subjected to ATP measurement. We used the Molecular Probes® ATP Determination Kit (Cat. # A22066, Life Technologies), which was based on luciferase’s absolute requirement for ATP in producing light (emission maximum ~560 nm at pH 7.8), to measure the extracellular ATP levels in LPS-stimulated RAW 264.7 cells.

[9] = system: Panx1 hemichannel permeability, macrophages; assay: Lucifer Yellow dye uptake in presence of calcium (Panx1 hemichannel permeability); assay type: cell-based
Cx43 EL2 peptide = assay: Surface Plasmon Resonance, Cx43 EL2 peptide; assay type: binding; details: synthetic full-length EL2 peptide, data not shown
[10] = system: Balb/c mice, polymicrobial sepsis (CLP); assay: CLP-induced sepsis survival; assay type: in vivo; details: P5 8.0 mg/kg
Excerpt: as §2

ENVCYD [P5, cysteine-containing Cx43 EL1 mimetic hexamer peptide, P5 (ENVCYD)]
inhibition of LPS-induced HMGB1 release [1]: significantly inhibited by P5 in a dose-dependent fashion | binding to Cx43 EL1 peptide (Cx43 EL1 peptide): did not find evidence of P5 interacting | LPS-induced trypan blue uptake [2]: significantly suppressed the LPS-induced elevation of trypan blue uptake | LPS-induced Cx43 upregulation [3]: did not affect the LPS-induced Cx43 upregulation | Cx43 protein expression [4]: did not alter Cx43 protein expression | LPS-induced production of nitric oxide [5]: did not affect the LPS-induced production of nitric oxide | TUNEL-positive cells in septic lungs [6]: significantly reduced the number of TUNEL-positive cells in septic lungs | serum alanine aminotransferase (ALT) [7]: significant reduction of serum levels | serum aspartate aminotransferase (AST) [7]: significant reduction of serum levels | systemic release of LDH [7]: significantly attenuated | LPS-induced ATP release [8]: significantly attenuated the LPS-induced ATP release | LY uptake in calcium-containing medium [9]: did not alter macrophage LY uptake in calcium-containing medium | binding to Cx43 EL2 peptide (Cx43 EL2 peptide): did not find evidence of P5 interacting | animal survival rates (in words) ([10]; +2 h and +24 h after onset of sepsis, P < 0.05 versus CLP + Saline): significant increase in animal survival rates | animal survival ([10]; i.p., +2, +24 h post CLP, up to two weeks, saline 30%, P < 0.05, Kaplan-Meier): 85%
